ChEMBL document CHEMBL1133531, “Carbonic anhydrase inhibitors: perfluoroalkyl/aryl-substituted derivatives of aromatic/heterocyclic sulfonamides as topical intraocular pressure-lowering agents with prolonged duration of action” (J Med Chem, 2000)
In brackets after ≈: the same amount, converted by molar mass.

What was measured:
[1] = Solubility in pH 7.4 Buffer, at 25 Degree C; format: physicochemical
Oryctolagus cuniculus [2] = assay: Tested for in vivo IOP-lowering of glaucomatous rabbits after topical administration at the specified interval( 90 min) at pH 6.5; format: functional
Oryctolagus cuniculus [3] = assay: Tested for in vivo IOP-lowering of glaucomatous rabbits after topical administration at the specified interval( 30 min) at pH 6.5; format: functional
Oryctolagus cuniculus [4] = assay: Tested for in vivo IOP-lowering of glaucomatous rabbits after topical administration at the specified interval( 60 min) at pH 6.5; format: functional
Carbonic anhydrase 1 [5] = target: T1, Carbonic anhydrase 1 (Homo sapiens, UniProt P00915)
T1 sequence (P00915 whole entry): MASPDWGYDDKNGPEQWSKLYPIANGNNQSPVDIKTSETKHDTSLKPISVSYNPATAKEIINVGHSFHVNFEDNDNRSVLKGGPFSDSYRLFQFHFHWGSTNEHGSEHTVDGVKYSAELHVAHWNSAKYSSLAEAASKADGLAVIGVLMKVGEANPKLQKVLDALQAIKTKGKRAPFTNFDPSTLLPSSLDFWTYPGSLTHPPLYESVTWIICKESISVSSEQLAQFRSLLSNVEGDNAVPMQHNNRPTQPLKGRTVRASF
Description: Inhibition of human recombinant carbonic anhydrase I (CA1)

Carbonic anhydrase 4 = target: T2, Carbonic anhydrase 4 (Bos taurus, UniProt Q95323)
T2 sequence (Q95323 whole entry): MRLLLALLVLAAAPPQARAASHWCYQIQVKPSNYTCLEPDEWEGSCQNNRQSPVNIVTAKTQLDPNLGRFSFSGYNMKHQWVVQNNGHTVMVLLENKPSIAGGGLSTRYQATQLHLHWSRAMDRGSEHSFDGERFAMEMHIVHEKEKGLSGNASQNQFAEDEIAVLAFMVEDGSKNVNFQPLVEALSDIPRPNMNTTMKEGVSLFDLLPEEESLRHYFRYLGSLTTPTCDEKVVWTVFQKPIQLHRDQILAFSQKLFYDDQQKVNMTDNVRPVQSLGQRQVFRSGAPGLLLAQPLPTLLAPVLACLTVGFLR
Description: Inhibition of bovine carbonic anhydrase IV (CA4) from bovine lung microsomes

[6] = octanol/water
Description: Partition coefficient (logD) (chloroform/buffer)

Oryctolagus cuniculus [7] = species: Oryctolagus cuniculus
Description: Tested for in vivo IOP-lowering of normotensive albino rabbits after topical administration at the specified interval (30 min) at pH 6.5

Oryctolagus cuniculus [8] = species: Oryctolagus cuniculus; remark: listed apart in the source
Description: Tested for in vivo IOP-lowering of normotensive albino rabbits after topical administration at the specified interval (60 min) at pH 6.5

Oryctolagus cuniculus [9] = species: Oryctolagus cuniculus; remark: listed apart in the source
Description: Tested for in vivo IOP-lowering of normotensive albino rabbits after topical administration at the specified interval (90 min) at pH 6.5

Oryctolagus cuniculus [10] = species: Oryctolagus cuniculus; remark: listed apart in the source
Description: Tested for ex vivo distribution in aqueous humor after topical administration in albino rabbits (Ocular tissue concentration after 1 hr)

Oryctolagus cuniculus [11] = species: Oryctolagus cuniculus; remark: listed apart in the source
Description: Tested for ex vivo distribution in aqueous humor after topical administration in albino rabbits (Ocular tissue concentration after 2 hr)

Oryctolagus cuniculus [12] = species: Oryctolagus cuniculus; remark: listed apart in the source
Description: Tested for ex vivo distribution in ciliary process after topical administration in albino rabbits (Ocular tissue concentration after 1 hr)

Oryctolagus cuniculus [13] = species: Oryctolagus cuniculus; remark: listed apart in the source
Description: Tested for ex vivo distribution in ciliary process after topical administration in albino rabbits (Ocular tissue concentration after 2 hr)

Oryctolagus cuniculus [14] = species: Oryctolagus cuniculus; remark: listed apart in the source
Description: Tested for ex vivo distribution in cornea after topical administration in albino rabbits (Ocular tissue concentration after 1 hr)

Oryctolagus cuniculus [15] = species: Oryctolagus cuniculus; remark: listed apart in the source
Description: Tested for ex vivo distribution in cornea after topical administration in albino rabbits (Ocular tissue concentration after 2 hr)

Oryctolagus cuniculus [16] = species: Oryctolagus cuniculus; remark: listed apart in the source
Description: In vitro transcorneal accession rate in rabbit corneal denuded epithelium

Oryctolagus cuniculus [17] = species: Oryctolagus cuniculus; remark: listed apart in the source
Description: In vitro transcorneal accession rate in rabbit corneal intact epithelium

Carbonic anhydrase 1 [18] = target: T1, Carbonic anhydrase 1; assay: 99 Tested for inhibition of human (cloned) isozyme Carbonic anhydrase I
Oryctolagus cuniculus [19] = species: Oryctolagus cuniculus; remark: listed apart in the source
Description: Tested for in vivo IOP-lowering of normotensive albino rabbits after topical administration at the specified interval (30 min) at pH 7

Oryctolagus cuniculus [20] = species: Oryctolagus cuniculus; remark: listed apart in the source
Description: Tested for in vivo IOP-lowering of normotensive albino rabbits after topical administration at the specified interval (60 min) at pH 7

Oryctolagus cuniculus [21] = species: Oryctolagus cuniculus; remark: listed apart in the source
Description: Tested for in vivo IOP-lowering of normotensive albino rabbits after topical administration at the specified interval (90 min) at pH 7

Carbonic anhydrase 1 [22] = target: T1, Carbonic anhydrase 1; assay: Tested for inhibition of human (cloned) isoenzyme carbonic anhydrase 1.
Carbonic anhydrase 1 [23] = target: T1, Carbonic anhydrase 1; assay: Tested for inhibition of human (cloned) isozyme Carbonic anhydrase I
[24] = Partition coefficient (logD) (chloroform-buffer); format: physicochemical
physchem = settings: pH 7.4 buffer
Description: Tested for solubility in pH 7.4 buffer, at 25 Degree C

Compound	Ki (Carbonic anhydrase 1 [5]) [nM]	Ki (Carbonic anhydrase 4) [nM]	further results
Cn1nc(S(N)(=O)=O)sc1=NS(=O)(=O)c1c(F)c(F)c(F)c(F)c1F	250	9	solubility [1]: 66 mM (≈ 28 mg/mL); Delta IOP (Oryctolagus cuniculus [2]): 16.9 mmHg; Delta IOP (Oryctolagus cuniculus [3]): 7.1 mmHg; Delta IOP (Oryctolagus cuniculus [4]): 14.2 mmHg; logD [6]: 2.347; Delta IOP (Oryctolagus cuniculus [7]): 4.7 mmHg; Delta IOP (Oryctolagus cuniculus [8]): 11.3 mmHg; Delta IOP (Oryctolagus cuniculus [9]): 9.1 mmHg; Drug concentration (Oryctolagus cuniculus [10]): 296 µM; Drug concentration (Oryctolagus cuniculus [11]): 39 µM; Drug concentration (Oryctolagus cuniculus [12]): 38 µM; Drug concentration (Oryctolagus cuniculus [13]): 7.1 µM; Drug concentration (Oryctolagus cuniculus [14]): 150 µM; Drug concentration (Oryctolagus cuniculus [15]): 36 µM; Kin (Oryctolagus cuniculus [16]): 8800 h⁻¹; Kin (Oryctolagus cuniculus [17]): 4900 h⁻¹
NS(=O)(=O)c1ccc(NC(=O)c2c(F)c(F)c(F)c(F)c2F)cc1	–	600	Ki (Carbonic anhydrase 1 [18]): 950 nM
Cn1nc(S(N)(=O)=O)s/c1=N/S(=O)(=O)c1ccc(NS(=O)(=O)c2c(F)c(F)c(F)c(F)c2F)cc1	21	9	–
NS(=O)(=O)c1nnc(NC(=O)CCNS(=O)(=O)c2c(F)c(F)c(F)c(F)c2F)s1	200	9	Delta IOP (Oryctolagus cuniculus [19]): 4 mmHg; Delta IOP (Oryctolagus cuniculus [20]): 7.5 mmHg; Delta IOP (Oryctolagus cuniculus [21]): 6.1 mmHg
NS(=O)(=O)c1nc2ccc(NS(=O)(=O)c3c(F)c(F)c(F)c(F)c3F)cc2s1	41	5	Delta IOP (Oryctolagus cuniculus [19]): 3 mmHg; Delta IOP (Oryctolagus cuniculus [20]): 8 mmHg; Delta IOP (Oryctolagus cuniculus [21]): 6.6 mmHg
NS(=O)(=O)c1ccc(NNS(=O)(=O)C(F)(F)C(F)(F)C(F)(F)C(F)(F)C(F)(F)C(F)(F)C(F)(F)C(F)(F)F)cc1	–	860	Ki (Carbonic anhydrase 1 [22]): 1680 nM
NS(=O)(=O)c1ccccc1NS(=O)(=O)C(F)(F)C(F)(F)C(F)(F)C(F)(F)F	22000	900	–
NS(=O)(=O)c1ccccc1NS(=O)(=O)c1c(F)c(F)c(F)c(F)c1F	1390	680	–
NS(=O)(=O)c1ccc(NS(=O)(=O)C(F)(F)F)c(F)c1	100000	29000	–
NS(=O)(=O)c1nc2ccc(OCCOC(=O)c3c(F)c(F)c(F)c(F)c3F)cc2s1	65	11	–
NS(=O)(=O)c1ccc(NS(=O)(=O)C(F)(F)C(F)(F)C(F)(F)C(F)(F)C(F)(F)C(F)(F)C(F)(F)C(F)(F)F)c(Br)c1	2550	12500	–
NS(=O)(=O)c1ccc(CCOS(=O)(=O)C(F)(F)F)cc1	80000	45000	–
NS(=O)(=O)c1ccccc1NC(=O)c1c(F)c(F)c(F)c(F)c1F	–	810	Ki (Carbonic anhydrase 1 [23]): 1560 nM
NS(=O)(=O)c1cccc(NS(=O)(=O)C(F)(F)F)c1	188000	95300	–
Cn1nc(S(N)(=O)=O)sc1=NS(=O)(=O)C(F)(F)F	2000	32	logD [24]: 1.012; Delta IOP (Oryctolagus cuniculus [7]): 3.2 mmHg; Delta IOP (Oryctolagus cuniculus [8]): 7.3 mmHg; Delta IOP (Oryctolagus cuniculus [9]): 4.9 mmHg; Kin (Oryctolagus cuniculus [16]): 4800 h⁻¹; Kin (Oryctolagus cuniculus [17]): 3100 h⁻¹; solubility (physchem): 69 mM (≈ 22.5 mg/mL)
NS(=O)(=O)c1nc2ccc(NC(=O)C(F)(F)C(F)(F)C(F)(F)C(F)(F)C(F)(F)C(F)(F)C(F)(F)C(F)(F)F)cc2s1	45	9	–
NS(=O)(=O)c1nnc(NC(=O)CCNS(=O)(=O)C(F)(F)F)s1	3000	40	–
NS(=O)(=O)c1nc2ccc(OCCOS(=O)(=O)c3c(F)c(F)c(F)c(F)c3F)cc2s1	18	7	–
NS(=O)(=O)c1ccc(CNS(=O)(=O)C(F)(F)C(F)(F)C(F)(F)C(F)(F)C(F)(F)C(F)(F)C(F)(F)C(F)(F)F)cc1	1000	705	–

Compound	Ki (Carbonic anhydrase 1 [5]) [nM]	Ki (Carbonic anhydrase 4) [nM]	further results
Cn1nc(S(N)(=O)=O)s/c1=N/S(=O)(=O)c1ccc(NS(=O)(=O)C(F)(F)F)cc1	1000	33	–
NS(=O)(=O)c1ccc(NC(=O)C(F)(F)C(F)(F)C(F)(F)C(F)(F)C(F)(F)C(F)(F)C(F)(F)C(F)(F)F)cc1	1400	850	–
NS(=O)(=O)c1ccc(NS(=O)(=O)C(F)(F)C(F)(F)C(F)(F)C(F)(F)C(F)(F)C(F)(F)C(F)(F)C(F)(F)F)c(I)c1	3400	15000	–
NS(=O)(=O)c1ccc(NS(=O)(=O)C(F)(F)F)c(I)c1	210000	49000	–
NS(=O)(=O)c1cccc(NC(=O)c2c(F)c(F)c(F)c(F)c2F)c1	–	650	Ki (Carbonic anhydrase 1 [23]): 1400 nM
NS(=O)(=O)c1nnc(NS(=O)(=O)C(F)(F)C(F)(F)C(F)(F)C(F)(F)F)s1	360	9	logD [24]: 1.525; Delta IOP (Oryctolagus cuniculus [19]): 2.8 mmHg; Delta IOP (Oryctolagus cuniculus [20]): 8.5 mmHg; Delta IOP (Oryctolagus cuniculus [21]): 5.6 mmHg; Kin (Oryctolagus cuniculus [16]): 7000 h⁻¹; Kin (Oryctolagus cuniculus [17]): 4300 h⁻¹; solubility (physchem): 50 mM (≈ 23.1 mg/mL)
NS(=O)(=O)c1nnc(NC(=O)c2c(F)c(F)c(F)c(F)c2F)s1	250	10	logD [24]: 2.245; Delta IOP (Oryctolagus cuniculus [19]): 2.2 mmHg; Delta IOP (Oryctolagus cuniculus [20]): 7.3 mmHg; Delta IOP (Oryctolagus cuniculus [21]): 6.5 mmHg; Kin (Oryctolagus cuniculus [16]): 10100 h⁻¹; Kin (Oryctolagus cuniculus [17]): 4800 h⁻¹; solubility (physchem): 43 mM (≈ 16.1 mg/mL)
NS(=O)(=O)c1nc2ccc(OCCOS(=O)(=O)C(F)(F)C(F)(F)C(F)(F)C(F)(F)C(F)(F)C(F)(F)C(F)(F)C(F)(F)F)cc2s1	17	5	–
NS(=O)(=O)c1ccc(NS(=O)(=O)c2c(F)c(F)c(F)c(F)c2F)cc1	890	410	–
NS(=O)(=O)c1nnc(NS(=O)(=O)c2ccc(NS(=O)(=O)C(F)(F)C(F)(F)C(F)(F)C(F)(F)C(F)(F)C(F)(F)C(F)(F)C(F)(F)F)cc2)s1	800	21	logD [24]: 1.689; Kin (Oryctolagus cuniculus [16]): 7.5 h⁻¹; Kin (Oryctolagus cuniculus [17]): 4.1 h⁻¹
NS(=O)(=O)c1nnc(NS(=O)(=O)c2ccc(NC(=O)C(F)(F)C(F)(F)C(F)(F)C(F)(F)C(F)(F)C(F)(F)C(F)(F)C(F)(F)F)cc2)s1	600	13	logD [24]: 1.436; Kin (Oryctolagus cuniculus [16]): 8 h⁻¹; Kin (Oryctolagus cuniculus [17]): 3.2 h⁻¹
NS(=O)(=O)c1nc2ccc(OS(=O)(=O)C(F)(F)F)cc2s1	55	10	–
NS(=O)(=O)c1ccc(COS(=O)(=O)C(F)(F)C(F)(F)C(F)(F)C(F)(F)F)cc1	24500	10600	–
NS(=O)(=O)c1ccc(CCNS(=O)(=O)C(F)(F)C(F)(F)C(F)(F)C(F)(F)C(F)(F)C(F)(F)C(F)(F)C(F)(F)F)cc1	965	470	–
NS(=O)(=O)c1ccc(CCOS(=O)(=O)C(F)(F)C(F)(F)C(F)(F)C(F)(F)F)cc1	20900	9200	–
NS(=O)(=O)c1nnc(NS(=O)(=O)c2c(F)c(F)c(F)c(F)c2F)s1	210	6	solubility [1]: 62 mM (≈ 25.4 mg/mL); logD [6]: 2.113; Drug concentration (Oryctolagus cuniculus [10]): 324 µM; Drug concentration (Oryctolagus cuniculus [11]): 42 µM; Drug concentration (Oryctolagus cuniculus [12]): 45 µM; Drug concentration (Oryctolagus cuniculus [13]): 12.5 µM; Drug concentration (Oryctolagus cuniculus [14]): 176 µM; Drug concentration (Oryctolagus cuniculus [15]): 69 µM; Kin (Oryctolagus cuniculus [16]): 8700 h⁻¹; Kin (Oryctolagus cuniculus [17]): 4500 h⁻¹
NS(=O)(=O)c1ccc(NC(=O)c2c(F)c(F)c(F)c(F)c2F)c(F)c1	760	185	–
CC(=O)/N=c1/sc(S(N)(=O)=O)nn1C [METHAZOLAMIDE]	–	–	logD [6]: 0.06; Kin (Oryctolagus cuniculus [16]): 13000 h⁻¹; Kin (Oryctolagus cuniculus [17]): 1900 h⁻¹
